Data from patent publication US10188106B2 (priority 2008, dated 2019).
Structures can show the parent of a compound that is named as a salt. Where two headings read alike, the source gives them in different places.

Key:
Type in all cases: in vivo
[1] = system: Alternaria solani; assay: Alternaria test (tomatoes)/protective; conditions: tomato plants, protective spray, evaluated 3 days after inoculation; for pest or weed control at 50 ppm: rate of application 50 ppm; for pest or weed control at 25 ppm: rate of application 25 ppm
Procedure: (§1) Solvent: 24.5 parts by weight of acetone
(§2) • 24.5 parts by weight of dimethylacetamide Emulsifier: 1 part by weight of alkylaryl polyglycol ether
(§3) To produce a suitable preparation of active compound, 1 part by weight of active compound is mixed with the stated amounts of solvent and emulsifier, and the concentrate is diluted with water to the desired concentration.
(§4) To test for protective activity, young plants are sprayed with the preparation of active compound at the stated rate of application. After the spray coating has dried on, the plants are inoculated with an aqueous spore suspension of Alternaria solani. The plants are then placed in an incubation cabinet at approximately 20° C. and a relative atmospheric humidity of 100%.
The test is evaluated 3 days after the inoculation. 0% means an efficacy which corresponds to that of the control while an efficacy of 100% means that no disease is observed.

[2] = system: Botrytis cinerea; assay: Botrytis test (beans)/protective; conditions: bean plants, protective spray, lesion size 2 days after inoculation
Procedure: as §1, §2, §3
To test for protective activity, young plants are sprayed with the preparation of active compound. After the spray coating has dried on, 2 small pieces of agar covered with growth of Botrytis cinerea are placed on each leaf. The inoculated plants are placed in a darkened chamber at 20° C. and a relative atmospheric humidity of 100%.
2 days after the inoculation, the size of the lesions on the leaves is evaluated. 0% means an efficacy which corresponds to that of the control, while an efficacy of 100% means that no disease is observed.

[3] = system: Phytophthora infestans; conditions: tomato plants, protective spray, evaluated 3 days after inoculation
[4] = system: Venturia inaequalis; assay: Venturia test (apples)/protective; conditions: apple plants, protective spray, rate of application 100 ppm, evaluated 10 days after inoculation
Procedure: as §1, §2, §3
as §4, with “conidia” for “spore”, “the causal agent of apple scab (Venturia inaequalis) and” for “Alternaria solani. The plants are”, “remain for 1 day” for “placed”
The plants are then placed in a greenhouse at approximately 21° C. and a relative atmospheric humidity of approximately 90%.
The test is evaluated 10 days after the inoculation. 0% means an efficacy which corresponds to that of the control, while an efficacy of 100% means that no disease is observed.

[5] = Alternaria solani, 72 h, read-out: Efficacy in %
[6] = Alternaria solani, 72 h, rate of application 10 ppm, read-out: Efficacy in %

Cc1nn(C)c(F)c1C(=O)Nc1ccccc1C(C)CC(C)C (stereo not drawn) [N-[2-(1,3-dimethylbutyl)phenyl]-5-fluoro-1,3-dimethyl-1H-pyrazole-4-carboxamide]
pest or weed control at 1 ppm ([1]; Alternaria solani, 72 h, rate of application 1 ppm, read-out: Efficacy in %): 18%

CO/C=C(/C(=O)OC)c1ccccc1Oc1cc(Oc2ccccc2C#N)ncn1 [azoxystrobin]
Efficacy in % ([1]; rate of application 10 ppm): 15%

Cn1cc(C(=O)Nc2ccc(F)cc2-c2ccc(Cl)c(Cl)c2)c(C(F)F)n1 [bixafen, N-(3′,4′-dichloro-5-fluorobiphenyl-2-yl)-3-(difluoromethyl)-1-methyl-1H-pyrazole-4-carboxamide]
pest or weed control at 1.25 ppm ([1]; Alternaria solani, 72 h, rate of application 1.25 ppm, read-out: Efficacy in %): 65%

O=C(Nc1ccccc1-c1ccc(Cl)cc1)c1cccnc1Cl [boscalid]
Efficacy in % ([2]; rate of application 5 ppm): 21%

N#Cc1c(Cl)c(Cl)c(Cl)c(C#N)c1Cl [chlorothalonil]
Efficacy in % ([3]; rate of application 25 ppm): 44%
pest or weed control at 50 ppm [1, 5]: 71%

CN/C(=N\[N+](=O)[O-])NCc1cnc(Cl)s1 [clothianidin]
Efficacy in % [4]: 66%

CCNC(=O)NC(=O)/C(C#N)=N/OC [cymoxanil]
Efficacy in % [4]: 23%
pest or weed control at 50 ppm [1, 5]: 23%

O=[N+]([O-])c1cc(C(F)(F)F)c(Cl)c([N+](=O)[O-])c1Nc1ncc(C(F)(F)F)cc1Cl [fluazinam]
Efficacy in % ([2]; rate of application 10 ppm): 79%

N#Cc1c[nH]cc1-c1cccc2c1OC(F)(F)O2 [fludioxonil]
Efficacy in % ([2]; rate of application 5 ppm): 45%

CO/N=C(/C1=NOCCO1)c1ccccc1Oc1ncnc(Oc2ccccc2Cl)c1F [fluoxastrobin]
pest or weed control at 10 ppm [1, 6]: 15%

CCCCCOC(=O)Nc1cccc(CON=C(c2ccccc2)c2nnnn2C)n1 [formula 1, pentyl {6-[({[(1-methyl-1H-tetrazol-5-yl)(phenyl)methylidene]amino}oxy)methyl]pyridin-2-yl}carbamate]
Efficacy in % [4]: 8%
Efficacy in % ([3]; rate of application 0.25 ppm): 47%
Efficacy in % ([3]; rate of application 0.5 ppm): 57%
Efficacy in % ([3]; rate of application 1 ppm): 77%
Efficacy in % ([2]; rate of application 50 ppm): 4%
Efficacy in % ([2]; rate of application 100 ppm): 4%
pest or weed control at 5 ppm ([1]; Alternaria solani, 72 h, rate of application 5 ppm, read-out: Efficacy in %): 0%
pest or weed control at 10 ppm [1, 6]: 0%
pest or weed control at 25 ppm [1, 5]: 0%
pest or weed control at 50 ppm [1, 5]: 8%
pest or weed control at 100 ppm ([1]; Alternaria solani, 72 h, rate of application 100 ppm, read-out: Efficacy in %): 0%

CCO[PH](=O)O [fosetyl-Al]
Efficacy in % ([3]; rate of application 10 ppm): 0%

O=[N+]([O-])NC1=NCCN1Cc1ccc(Cl)nc1 [imidacloprid]
Efficacy in % [4]: 4%
pest or weed control at 25 ppm [1, 5]: 0%

CC(C)NC(=O)N1CC(=O)N(c2cc(Cl)cc(Cl)c2)C1=O [iprodione]
Efficacy in % ([2]; rate of application 100 ppm): 66%

Cc1ccc(C(C)NC(=O)[C@@H](NC(=O)OC(C)C)C(C)C)cc1 (stereo partly drawn) [iprovalicarb]
Efficacy in % ([3]; rate of application 1 ppm): 16%

CCCOC(=O)NCCCN(C)C [propamocarb-HCl]
Efficacy in % [4]: 4%
pest or weed control at 50 ppm [1, 5]: 38%

OC(Cc1ccccc1Cl)(Cn1nc[nH]c1=S)C1(Cl)CC1 (stereo not drawn) [prothioconazole]
pest or weed control at 2.5 ppm ([1]; Alternaria solani, 72 h, rate of application 2.5 ppm, read-out: Efficacy in %): 23%

COC(=O)N(OC)c1ccccc1COc1ccn(-c2ccc(Cl)cc2)n1 [pyraclostrobin]
pest or weed control at 10 ppm [1, 6]: 45%

CC(C)(C)C(O)(CCc1ccc(Cl)cc1)Cn1cncn1 (stereo not drawn) [tebuconazole]
pest or weed control at 10 ppm [1, 6]: 55%

CON=C(C(=O)OC)c1ccccc1CON=C(C)c1cccc(C(F)(F)F)c1 [trifloxystrobin]
pest or weed control at 10 ppm [1, 6]: 35%

mancozeb
Efficacy in % ([3]; rate of application 10 ppm): 0%

propineb [Ppopineb]
Efficacy in % ([3]; rate of application 10 ppm): 0%
